Assay results: PubChem BioAssay (NCI)
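Method: 48-hour compound exposure of cells in 96-well plates, five concentrations, linear interpolation of endpoints. TGI marks complete inhibition of growth.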

Columns and labels:
Assay in all cases: NCI tumour cell line growth inhibition, 48 h
HT29 colon = tested on: HT29 colon
SK-OV-3 ovarian = tested on: SK-OV-3 ovarian
A498 renal = tested on: A498 renal
NCI-H226 lung = tested on: NCI-H226 lung
SN12C renal = tested on: SN12C renal
UO-31 renal = tested on: UO-31 renal
A549 NSCLC = tested on: A549 NSCLC
OVCAR-8 ovarian = tested on: OVCAR-8 ovarian
NCI-H23 lung = tested on: NCI-H23 lung
HS 578T breast = tested on: HS 578T breast
MALME-3M melanoma = tested on: MALME-3M melanoma
IGROV1 ovarian = tested on: IGROV1 ovarian
MOLT-4 leukemia = tested on: MOLT-4 leukemia
PC-3 prostate = tested on: PC-3 prostate
CCRF-CEM leukemia = tested on: CCRF-CEM leukemia
HCT-116 colon = tested on: HCT-116 colon
MDA-N = tested on: MDA-N
BT-549 breast = tested on: BT-549 breast
SK-MEL-2 melanoma = tested on: SK-MEL-2 melanoma
SW-620 colon = tested on: SW-620 colon
HOP-62 NSCLC = tested on: HOP-62 NSCLC
COLO 205 colon = tested on: COLO 205 colon
OVCAR-4 ovarian = tested on: OVCAR-4 ovarian
MDA-MB-231 breast = tested on: MDA-MB-231 breast
DU-145 prostate = tested on: DU-145 prostate
SR leukemia = tested on: SR leukemia
OVCAR-3 ovarian = tested on: OVCAR-3 ovarian
TK-10 renal = tested on: TK-10 renal
K-562 leukemia = tested on: K-562 leukemia
U251 CNS = tested on: U251 CNS
786-0 renal = tested on: 786-0 renal
NCI-H460 lung = tested on: NCI-H460 lung
OVCAR-5 ovarian = tested on: OVCAR-5 ovarian
SF-539 CNS = tested on: SF-539 CNS
RPMI-8226 leukemia = tested on: RPMI-8226 leukemia
CAKI-1 renal = tested on: CAKI-1 renal
KM12 colon = tested on: KM12 colon
SK-MEL-5 melanoma = tested on: SK-MEL-5 melanoma
SF-295 CNS = tested on: SF-295 CNS
UACC-257 melanoma = tested on: UACC-257 melanoma
HL-60(TB) leukemia = tested on: HL-60(TB) leukemia
HOP-92 NSCLC = tested on: HOP-92 NSCLC
T-47D breast = tested on: T-47D breast
LOX IMVI melanoma = tested on: LOX IMVI melanoma
ACHN renal = tested on: ACHN renal
NCI/ADR-RES ovarian = tested on: NCI/ADR-RES ovarian
SNB-75 CNS = tested on: SNB-75 CNS
NCI-H522 lung = tested on: NCI-H522 lung
HCT-15 colon = tested on: HCT-15 colon
UACC-62 melanoma = tested on: UACC-62 melanoma
M14 melanoma = tested on: M14 melanoma
MCF7 breast = tested on: MCF7 breast
HCC-2998 colon = tested on: HCC-2998 colon
SK-MEL-28 melanoma = tested on: SK-MEL-28 melanoma
SNB-19 CNS = tested on: SNB-19 CNS
MDA-MB-435 = tested on: MDA-MB-435
EKVX NSCLC = tested on: EKVX NSCLC
RXF 393 renal = tested on: RXF 393 renal
SF-268 CNS = tested on: SF-268 CNS

SMILES: COc1ccc(S(=O)(=O)NC(CCC(=O)NC(N)=O)C(=O)NC(N)=O)cc1 (stereo not given)
- TGI (HT29 colon): > 100 µM
- TGI (SK-OV-3 ovarian): > 100 µM
- TGI (A498 renal): > 100 µM
- TGI (NCI-H226 lung): > 100 µM
- TGI (SN12C renal): > 100 µM
- TGI (UO-31 renal): > 100 µM
- TGI (A549 NSCLC): > 100 µM
- TGI (OVCAR-8 ovarian): > 100 µM
- TGI (NCI-H23 lung): > 100 µM
- TGI (HS 578T breast): > 100 µM
- TGI (MALME-3M melanoma): > 100 µM
- TGI (IGROV1 ovarian): > 100 µM
- TGI (MOLT-4 leukemia): > 100 µM
- TGI (PC-3 prostate): > 100 µM
- TGI (CCRF-CEM leukemia): > 100 µM
- TGI (HCT-116 colon): > 100 µM
- TGI (MDA-N): > 100 µM
- TGI (BT-549 breast): > 100 µM
- TGI (SK-MEL-2 melanoma): > 100 µM
- TGI (SW-620 colon): > 100 µM
- TGI (HOP-62 NSCLC): > 100 µM
- TGI (COLO 205 colon): > 100 µM
- TGI (OVCAR-4 ovarian): > 100 µM
- TGI (MDA-MB-231 breast): > 100 µM
- TGI (DU-145 prostate): > 100 µM
- TGI (SR leukemia): > 100 µM
- TGI (OVCAR-3 ovarian): > 100 µM
- TGI (TK-10 renal): > 100 µM
- TGI (K-562 leukemia): > 100 µM
- TGI (U251 CNS): > 100 µM
- TGI (786-0 renal): > 100 µM
- TGI (NCI-H460 lung): > 100 µM
- TGI (OVCAR-5 ovarian): > 100 µM
- TGI (SF-539 CNS): > 100 µM
- TGI (RPMI-8226 leukemia): > 100 µM
- TGI (CAKI-1 renal): > 100 µM
- TGI (KM12 colon): > 100 µM
- TGI (SK-MEL-5 melanoma): > 100 µM
- TGI (SF-295 CNS): > 100 µM
- TGI (UACC-257 melanoma): > 100 µM
- TGI (HL-60(TB) leukemia): > 100 µM
- TGI (HOP-92 NSCLC): > 100 µM
- TGI (T-47D breast): > 100 µM
- TGI (LOX IMVI melanoma): > 100 µM
- TGI (ACHN renal): > 100 µM
- TGI (NCI/ADR-RES ovarian): > 100 µM
- TGI (SNB-75 CNS): > 100 µM
- TGI (NCI-H522 lung): > 100 µM
- TGI (HCT-15 colon): > 100 µM
- TGI (UACC-62 melanoma): > 100 µM
- TGI (M14 melanoma): > 100 µM
- TGI (MCF7 breast): > 100 µM
- TGI (HCC-2998 colon): > 100 µM
- TGI (SK-MEL-28 melanoma): > 100 µM
- TGI (SNB-19 CNS): > 100 µM
- TGI (MDA-MB-435): > 100 µM
- TGI (EKVX NSCLC): > 100 µM

SMILES: O=C(OCCN=c1c2ccccc2ccc2ccccc12)c1cc([N+](=O)[O-])cc([N+](=O)[O-])c1
- TGI (HT29 colon): > 100 µM
- TGI (SK-OV-3 ovarian): > 100 µM
- TGI (NCI-H226 lung): > 100 µM
- TGI (SN12C renal): > 100 µM
- TGI (UO-31 renal): > 100 µM
- TGI (A549 NSCLC): > 100 µM
- TGI (RXF 393 renal): > 100 µM
- TGI (OVCAR-8 ovarian): > 100 µM
- TGI (NCI-H23 lung): > 100 µM
- TGI (HS 578T breast): > 100 µM
- TGI (MALME-3M melanoma): 66.2 µM
- TGI (IGROV1 ovarian): > 100 µM
- TGI (MOLT-4 leukemia): > 100 µM
- TGI (PC-3 prostate): > 100 µM
- TGI (CCRF-CEM leukemia): > 100 µM
- TGI (HCT-116 colon): > 100 µM
- TGI (MDA-N): > 100 µM
- TGI (BT-549 breast): > 100 µM
- TGI (SK-MEL-2 melanoma): > 100 µM
- TGI (SW-620 colon): > 100 µM
- TGI (HOP-62 NSCLC): > 100 µM
- TGI (COLO 205 colon): > 100 µM
- TGI (OVCAR-4 ovarian): > 100 µM
- TGI (MDA-MB-231 breast): > 100 µM
- TGI (DU-145 prostate): > 100 µM
- TGI (SR leukemia): > 100 µM
- TGI (OVCAR-3 ovarian): > 100 µM
- TGI (TK-10 renal): > 100 µM
- TGI (SF-268 CNS): > 100 µM
- TGI (K-562 leukemia): > 100 µM
- TGI (U251 CNS): > 100 µM
- TGI (786-0 renal): > 100 µM
- TGI (NCI-H460 lung): > 100 µM
- TGI (OVCAR-5 ovarian): > 100 µM
- TGI (SF-539 CNS): > 100 µM
- TGI (RPMI-8226 leukemia): > 100 µM
- TGI (CAKI-1 renal): > 100 µM
- TGI (KM12 colon): > 100 µM
- TGI (SK-MEL-5 melanoma): > 100 µM
- TGI (SF-295 CNS): > 100 µM
- TGI (UACC-257 melanoma): > 100 µM
- TGI (HL-60(TB) leukemia): > 100 µM
- TGI (HOP-92 NSCLC): > 100 µM
- TGI (T-47D breast): > 100 µM
- TGI (LOX IMVI melanoma): > 100 µM
- TGI (ACHN renal): > 100 µM
- TGI (NCI/ADR-RES ovarian): > 100 µM
- TGI (SNB-75 CNS): > 100 µM
- TGI (HCT-15 colon): > 100 µM
- TGI (UACC-62 melanoma): > 100 µM
- TGI (M14 melanoma): > 100 µM
- TGI (MCF7 breast): > 100 µM
- TGI (SK-MEL-28 melanoma): > 100 µM
- TGI (SNB-19 CNS): > 100 µM
- TGI (MDA-MB-435): > 100 µM
- TGI (EKVX NSCLC): > 100 µM

SMILES: CC(C)(C)O/N=C/c1cc(NC(=S)c2ccccc2)ccc1Cl
- TGI (HT29 colon): 29.2 µM
- TGI (SK-OV-3 ovarian): > 100 µM
- TGI (A498 renal): 27.6 µM
- TGI (NCI-H226 lung): 34.7 µM
- TGI (SN12C renal): 26 µM
- TGI (UO-31 renal): 31.6 µM
- TGI (A549 NSCLC): 35.1 µM
- TGI (RXF 393 renal): 27.9 µM
- TGI (OVCAR-8 ovarian): 35.6 µM
- TGI (NCI-H23 lung): 34.1 µM
- TGI (HS 578T breast): 63 µM
- TGI (MALME-3M melanoma): 40.6 µM
- TGI (IGROV1 ovarian): 27.1 µM
- TGI (MOLT-4 leukemia): 39.7 µM
- TGI (PC-3 prostate): 46 µM
- TGI (CCRF-CEM leukemia): 74.5 µM
- TGI (HCT-116 colon): 29.4 µM
- TGI (MDA-N): 29.9 µM
- TGI (BT-549 breast): 35.1 µM
- TGI (SK-MEL-2 melanoma): 39.6 µM
- TGI (SW-620 colon): 45.3 µM
- TGI (HOP-62 NSCLC): 37.1 µM
- TGI (COLO 205 colon): 27.8 µM
- TGI (OVCAR-4 ovarian): 74.7 µM
- TGI (MDA-MB-231 breast): 40.3 µM
- TGI (DU-145 prostate): 42.1 µM
- TGI (SR leukemia): 47.2 µM
- TGI (OVCAR-3 ovarian): 35.3 µM
- TGI (TK-10 renal): 31.1 µM
- TGI (SF-268 CNS): 58.5 µM
- TGI (U251 CNS): 45.5 µM
- TGI (786-0 renal): 32.5 µM
- TGI (NCI-H460 lung): 24.3 µM
- TGI (OVCAR-5 ovarian): 69.7 µM
- TGI (SF-539 CNS): 71.4 µM
- TGI (RPMI-8226 leukemia): 41 µM
- TGI (CAKI-1 renal): 72.4 µM
- TGI (KM12 colon): 25.7 µM
- TGI (SK-MEL-5 melanoma): 41.5 µM
- TGI (SF-295 CNS): 51.3 µM
- TGI (UACC-257 melanoma): 31 µM
- TGI (HL-60(TB) leukemia): 42.6 µM
- TGI (HOP-92 NSCLC): 34.4 µM
- TGI (T-47D breast): 62.5 µM
- TGI (LOX IMVI melanoma): 30.4 µM
- TGI (ACHN renal): 32.7 µM
- TGI (NCI/ADR-RES ovarian): 33.5 µM
- TGI (NCI-H522 lung): 28.2 µM
- TGI (HCT-15 colon): 32.1 µM
- TGI (UACC-62 melanoma): 32.7 µM
- TGI (M14 melanoma): 54.1 µM
- TGI (MCF7 breast): > 100 µM
- TGI (HCC-2998 colon): 24.2 µM
- TGI (SK-MEL-28 melanoma): 32.5 µM
- TGI (SNB-19 CNS): 63.8 µM
- TGI (MDA-MB-435): 88.7 µM
- TGI (EKVX NSCLC): 40.7 µM
